The assay addresses T1, 5HT6 human recombinant receptor (Homo sapiens, UniProt P50406).
T1 construct: purchased Receptor Biology; host or cells: HEK-293 cell membranes (recombinant expression)
Kind of assay: Binding Test to 5-HT6 Receptors ([3H]-LSD displacement, HEK-293 membranes). Conditions: [3H]-LSD 2.7 nM, 60 min, 37° C.; for inhibition at 0.1 µM: compound at 10^−7 M; for inhibition at 0.01 µM: compound at 10^−8 M. How it is done: Binding Test to 5-HT6 Receptors
Membranes of HEK-293 cells expressing the 5HT6 human recombinant receptor were supplied by Receptor Biology. In these membranes the receptor concentration is 2.18 pmol/mg protein and the protein concentration is 9.17 mg/ml. The experimental protocol follows the method of B. L. Roth et al. [B. L. Roth, S. C. Craigo, M. S. Choudhary, A. Uluer, F. J. Monsma, Y. Shen, H. Y. Meltzer, D. R. Sibley: Binding of Typical and Atypical Antipsychotic Agents to 5-Hydroxytryptamine-6 and Hydroxytriptamine-7 Receptors. The Journal of Pharmacology and Experimental Therapeutics, 1994, 268, 1403] with slight modifications. The commercial membrane is diluted (dilution 1:40) with the binding buffer: 50 mM Tris-HCl, 10 mM MgCl2, 0.5 mM EDTA (pH 7.4). The radioligand used is [^3H]-LSD at a concentration of 2.7 nM with a final volume of 200 μl. Incubation is initiated by adding 100 μl of the membrane suspension (≈22.9 μg membrane protein), and continues for 60 minutes at a temperature of 37° C. Incubation ends by fast filtration in a Harvester Brandel Cell through glass fibre filters manufactured by Schleicher & Schuell GF 3362 pre-treated with a 0.5% polyethylenimine solution. The filters are washed three times with three millilitres of Tris-HCl 50 mM pH 7.4 buffer. The filters are transferred to phials and to each phial 5 ml of liquid scintillation cocktail Ecoscint H is added. The phials are allowed to reach equilibrium for several hours before being counted in a Wallac Winspectral 1414 scintillation counter. Non-specific binding is determined in the presence of 100 μM serotonin. The tests are performed in triplicate. The inhibition constants (Ki, nM) are calculated by non-linear regression analysis using the program EBDA/LIGAND [Munson and Rodbard, Analytical Biochemistry, 1980, 107, 220].

Usually inhibition stands for the relative decrease from the control value, in per cent.

The structures appear in SMILES notation. Structures can show the parent of a compound that is named as a salt.

T1 sequence (P50406 whole entry): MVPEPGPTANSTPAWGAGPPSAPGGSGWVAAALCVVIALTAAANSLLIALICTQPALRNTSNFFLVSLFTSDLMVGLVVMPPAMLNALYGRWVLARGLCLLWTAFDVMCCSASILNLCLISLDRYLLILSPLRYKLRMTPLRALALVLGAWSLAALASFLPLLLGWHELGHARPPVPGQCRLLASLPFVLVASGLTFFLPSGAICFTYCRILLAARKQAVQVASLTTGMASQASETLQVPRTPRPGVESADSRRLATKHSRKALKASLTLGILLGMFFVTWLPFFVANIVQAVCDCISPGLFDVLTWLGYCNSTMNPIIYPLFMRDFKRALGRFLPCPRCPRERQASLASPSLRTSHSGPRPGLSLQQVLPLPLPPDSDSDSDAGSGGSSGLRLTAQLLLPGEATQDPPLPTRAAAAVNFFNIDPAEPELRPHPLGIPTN

Turning to `O=S(=O)(Nc1ccc2c(c1)C(N1CCNCC1)CC2)c1c(Cl)nc2sccn12` (centres unmarked) [Compound 5, N-[3-(piperazin-1-yl)-2,3-dihydro-1H-inden-5-yl]-6-chloroimidazo[2,1-b][1,3]thiazole-5-sulfonamide], the inhibition at 0.1 µM was 85.6% and the inhibition at 0.01 µM came to 63.6%.

Turning to `CC1(C)CC(=NNC(=N)N)c2cc(NS(=O)(=O)c3c(Cl)nc4sccn34)ccc21` [Compound 20, 2-(6-{[(6-chloroimidazo[2,1-b][1,3]thiazol-5-yl)sulfonyl]amino}-3,3-dimethyl-2,3-dihydro-1H-inden-1-ylidene)hydrazinecarboximidamide hydrochloride], the inhibition at 0.1 µM was found to be 87.7% and the inhibition at 0.01 µM amounted to 77.2%.

As for `CN1CCN(C2CCc3ccc(N(C)S(=O)(=O)c4c(Cl)nc5sccn45)cc32)CC1` (centres unmarked) [Compound 16, 6-chloro-N-methyl-N-[3-(4-methylpiperazin-1-yl)-2,3-dihydro-1H-inden-5-yl]imidazo[2,1-b][1,3]thiazole-5-sulfonamide], the inhibition at 0.1 µM worked out at 72.7% and the inhibition at 0.01 µM was 29%.

On to `O=S(=O)(Nc1ccc2c(c1)C(=NNC1=NCCN1)CC2)c1c(Cl)nc2sccn12` [Compound 24, 6-chloro-N-[3-(4,5-dihydro-1H-imidazol-2-ylhydrazono)-2,3-dihydro-1H-inden-5-yl]imidazo[2,1-b][1,3]thiazole-5-sulfonamide hydrochloride], for which the inhibition at 0.1 µM was 87.7% and the inhibition at 0.01 µM turned out to be 83.3%.

For `CN1CCN(C2CCc3ccc(NS(=O)(=O)c4ccc5ccccc5c4)cc32)CC1` (centres unmarked) [Compound 2, N-[3-(4-methylpiperazin-1-yl)-2,3-dihydro-1H-inden-5-yl]naphtalene-2-sulfonamide], the inhibition at 0.1 µM came to 89.1% and the inhibition at 0.01 µM amounted to 71.6%.

For the compound `Cc1c(S(=O)(=O)Nc2ccc3c(c2)C(N2CCN(C)CC2)CC3)sc2ccc(Cl)cc12` (centres unmarked) [Compound 3, N-[3-(4-methylpiperazin-1-yl)-2,3-dihydro-1H-inden-5-yl]-5-chloro-3-methylbenzo[b]thiophene-2-sulfonamide], the inhibition at 0.1 µM amounted to 87.9% and the inhibition at 0.01 µM worked out at 55.7%.

For the compound `CN1CCN(C2CCc3ccc(NS(=O)(=O)c4c(Cl)nc5sccn45)cc32)CC1` (racemic) [Compound 4, N-[3-(4-methylpiperazin-1-yl)-2,3-dihydro-1H-inden-5-yl]-6-chloroimidazo[2,1-b][1,3]thiazole-5-sulfonamide], the inhibition at 0.1 µM is 83.4% and the inhibition at 0.01 µM amounted to 63%.

Regarding `N=C(N)N/N=C1/CCc2ccc(NS(=O)(=O)c3ccc4ccccc4c3)cc21` [Compound 8, 2-{6-[(2-naphthylsulfonyl)amino]-2,3-dihydro-1H-inden-1-ylidene}hydrazinecarboximidamide hydrochloride], the inhibition at 0.1 µM amounted to 82.2% and the inhibition at 0.01 µM is 56.1%.

For `N=C(N)N/N=C1/CCc2ccc(NS(=O)(=O)c3c(Cl)nc4sccn34)cc21` [Compound 9, 2-(6-{[(6-chloroimidazo[2,1-b][1,3]thiazol-5-yl)sulfonyl]amino}-2,3-dihydro-1H-inden-1-ylidene)hydrazinecarboximidamide], the inhibition at 0.1 µM worked out at 89.6% and the inhibition at 0.01 µM came out at 84.7%.

For the compound `N=C(N)NN=C1CCc2cc(NS(=O)(=O)c3c(Cl)nc4sccn34)ccc21` [Compound 21, 2-(5-{[(6-chloroimidazo[2,1-b][1,3]thiazol-5-yl)sulfonyl]amino}-2,3-dihydro-1H-inden-1-ylidene)hydrazinecarboximidamide hydrochloride], the inhibition at 0.1 µM was 86.9% and the inhibition at 0.01 µM was found to be 78.1%.

As to `CN1CCOc2cc(S(=O)(=O)Nc3ccc4c(c3)C(=NNC3=NCCN3)CC4)ccc21` [Compound 26, N-[3-(4,5-dihydro-1H-imidazol-2-ylhydrazono)-2,3-dihydro-1H-inden-5-yl]-4-methyl-3,4-dihydro-2H-1,4-benzoxazine-7-sulfonamide hydrochloride], the inhibition at 0.1 µM came to 84.6% and the inhibition at 0.01 µM came to 51%.

For `CN1CCN(C2CCc3cc(NS(=O)(=O)c4c(Cl)nc5sccn45)ccc32)CC1` (centres unmarked) [Compound 14, 6-chloro-N-[1-(4-methylpiperazin-1-yl)-2,3-dihydro-1H-inden-5-yl]imidazo[2,1b][1,3]thiazole-5-sulfonamide], the inhibition at 0.1 µM was found to be 85.8% and the inhibition at 0.01 µM was determined as 75.5%.

On to `CN1CCOc2cc(S(=O)(=O)Nc3ccc4c(c3)/C(=N\NC(=N)N)CC4)ccc21` [Compound 23, 2-(6-{[(4-methyl-3,4-dihydro-2H-1,4-benzoxazine-7-yl)sulfonyl]amino}-2,3-dihydro-1H-inden-1-ylidene)hydrazinecarboximidamide hydrochloride], for which the inhibition at 0.1 µM was found to be 87.3% and the inhibition at 0.01 µM was found to be 69.3%.

In the case of `CN1CCN(C2CC(C)(C)c3ccc(NS(=O)(=O)c4c(Cl)nc5sccn45)cc32)CC1` (centres unmarked) [Compound 15, 6-chloro-N-[1,1-dimethyl-3-(4-methylpiperazin-1-yl)-2,3-dihydro-1H-inden-5-yl]imidazo[2,1-b][1,3]thiazole-5-sulfonamide], the inhibition at 0.1 µM worked out at 30.3% and the inhibition at 0.01 µM was -6.6%.

For the compound `CC1Cc2ccc(NS(=O)(=O)c3c(Cl)nc4sccn34)cc2/C1=N\NC(=N)N` (centres unmarked) [Compound 11, 2-(6-{[(6-chloroimidazo[2,1-b][1,3]thiazol-5-yl)sulfonyl]amino}-2-methyl-2,3-dihydro-1H-inden-1-ylidene)hydrazinecarboximidamide], the inhibition at 0.1 µM turned out to be 91.1% and the inhibition at 0.01 µM worked out at 84.7%.

`CN(c1ccc2c(c1)/C(=N\NC(=N)N)CC2)S(=O)(=O)c1c(Cl)nc2sccn12` [Compound 22, 2-(6-{[(6-chloroimidazo[2,1-b][1,3]thiazol-5-yl)sulfonyl](methyl)amino}-2,3-dihydro-1H-inden-1-ylidene)hydrazinecarboximidamide hydrochloride]: the inhibition at 0.1 µM turned out to be 89.2% and the inhibition at 0.01 µM was 83.9%.
